# Data reported in US20240228463A1, “SODIUM CHANNEL INHIBITORS AND METHODS OF DESIGNING SAME” (Genentech, Inc., priority 2021, published 2024).
# Target: T1, hNaV1.7 (Homo sapiens, UniProt Q15858)
# T1 construct: expressed in transfected cells
# Assay: Patch voltage clamp electrophysiology (EP), Syncropatch 384PE, Nav1.7 in CHO cells;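 note: Nav1.7 stably expressed from cDNA in CHO cells, holding potential of −50 mV kept for the entire experiment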
# Format: cell-based
# Details: hNaV1.7 EP_SP, holding potential −50 mV, inhibition based on 7.5 min compound incubation
# T1 sequence (Q15858 1-1977 isoform Q15858-3): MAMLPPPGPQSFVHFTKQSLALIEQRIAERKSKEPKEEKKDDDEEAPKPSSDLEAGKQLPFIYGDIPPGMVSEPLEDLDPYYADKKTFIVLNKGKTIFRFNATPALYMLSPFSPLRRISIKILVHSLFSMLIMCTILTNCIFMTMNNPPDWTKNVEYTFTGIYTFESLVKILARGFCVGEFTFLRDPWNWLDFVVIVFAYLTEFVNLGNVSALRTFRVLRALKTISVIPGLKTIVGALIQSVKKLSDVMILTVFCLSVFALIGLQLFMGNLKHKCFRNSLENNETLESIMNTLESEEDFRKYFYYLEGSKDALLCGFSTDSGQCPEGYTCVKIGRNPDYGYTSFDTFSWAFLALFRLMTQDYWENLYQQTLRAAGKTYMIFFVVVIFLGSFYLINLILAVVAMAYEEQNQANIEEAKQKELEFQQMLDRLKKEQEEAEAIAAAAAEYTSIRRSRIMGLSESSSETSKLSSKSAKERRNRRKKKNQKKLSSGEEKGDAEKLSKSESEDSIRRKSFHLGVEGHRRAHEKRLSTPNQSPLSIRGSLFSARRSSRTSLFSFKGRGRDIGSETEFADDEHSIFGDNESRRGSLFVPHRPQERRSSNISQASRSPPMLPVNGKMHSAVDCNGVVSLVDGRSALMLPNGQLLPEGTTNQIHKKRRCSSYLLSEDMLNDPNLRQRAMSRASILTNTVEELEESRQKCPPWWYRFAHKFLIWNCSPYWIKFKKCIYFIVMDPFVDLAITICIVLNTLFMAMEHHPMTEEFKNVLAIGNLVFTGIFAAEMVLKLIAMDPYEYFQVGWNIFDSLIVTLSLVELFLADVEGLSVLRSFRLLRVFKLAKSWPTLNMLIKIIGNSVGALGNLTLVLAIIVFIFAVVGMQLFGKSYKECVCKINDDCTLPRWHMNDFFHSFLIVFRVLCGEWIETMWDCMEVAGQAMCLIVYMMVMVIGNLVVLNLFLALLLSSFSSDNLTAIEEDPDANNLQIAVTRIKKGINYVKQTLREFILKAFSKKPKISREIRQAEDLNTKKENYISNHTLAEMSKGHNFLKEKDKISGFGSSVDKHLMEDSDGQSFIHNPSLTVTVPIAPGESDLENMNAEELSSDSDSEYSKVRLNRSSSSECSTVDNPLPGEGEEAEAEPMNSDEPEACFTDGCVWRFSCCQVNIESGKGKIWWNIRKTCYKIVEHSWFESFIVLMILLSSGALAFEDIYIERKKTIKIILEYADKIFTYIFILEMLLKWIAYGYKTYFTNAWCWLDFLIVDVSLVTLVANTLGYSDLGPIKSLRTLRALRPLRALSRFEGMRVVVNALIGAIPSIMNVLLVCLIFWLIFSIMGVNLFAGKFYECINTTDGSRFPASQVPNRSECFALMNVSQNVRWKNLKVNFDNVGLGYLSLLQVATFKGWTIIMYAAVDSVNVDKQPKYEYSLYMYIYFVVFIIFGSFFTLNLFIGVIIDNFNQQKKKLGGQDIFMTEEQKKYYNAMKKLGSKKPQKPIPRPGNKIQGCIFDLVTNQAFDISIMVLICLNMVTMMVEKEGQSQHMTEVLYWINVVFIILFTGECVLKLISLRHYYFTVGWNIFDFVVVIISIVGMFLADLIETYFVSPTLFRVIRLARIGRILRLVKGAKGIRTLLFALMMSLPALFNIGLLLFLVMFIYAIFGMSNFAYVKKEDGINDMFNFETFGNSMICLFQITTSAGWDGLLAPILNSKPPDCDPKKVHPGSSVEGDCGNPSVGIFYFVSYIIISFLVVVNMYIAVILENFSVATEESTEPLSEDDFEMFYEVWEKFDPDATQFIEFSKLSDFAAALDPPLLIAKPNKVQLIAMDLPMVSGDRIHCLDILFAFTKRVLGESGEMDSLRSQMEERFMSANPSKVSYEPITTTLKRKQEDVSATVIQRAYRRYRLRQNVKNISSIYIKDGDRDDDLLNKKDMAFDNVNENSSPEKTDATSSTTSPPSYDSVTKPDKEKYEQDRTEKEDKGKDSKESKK
row,SMILES,IC50
1,"O=C(NS(=O)(=O)N1CC[C@@H]2[C@@H](C1)OCC(=O)N2c1ccccc1)c1cc(Cl)c(OCC2CCCC2)cc1F (single isomer, unassigned) [Example 44]",130 nM

# Same assay, conditions: holding potential −50 mV, inhibition based on 7.5 min compound incubation, read-out: hNaV1.7 EP_SP
row,SMILES,IC50
1,"O=C(NS(=O)(=O)c1ccc(OC(F)(F)F)cc1Cl)c1cc(Cl)c(OCC2CCCC2)cc1F [Example 293, 5-chloro-N-((2-chloro-4-(trifluoromethoxy)phenyl)sulfonyl)-4-(cyclopentylmethoxy)-2-fluorobenzamide]",850 nM
2,"O=C(NS(=O)(=O)N1CCCCC1)c1cc(Cl)c(OCC2CCCC2)cc1F [Example 21, 5-chloro-4-(cyclopentylmethoxy)-2-fluoro-N-(piperidin-1-ylsulfonyl)benzamide]",14 nM
3,"Cn1ncnc1COc1ccc(S(=O)(=O)NC(=O)c2cc(Cl)c(OCC3CCCC3)cc2F)cc1 [Example 286, 5-chloro-4-(cyclopentylmethoxy)-2-fluoro-N-((4-((1-methyl-1H-1,2,4-triazol-5-yl)methoxy)phenyl)sulfonyl)benzamide]",160 nM
4,"O=C(NS(=O)(=O)N1CCC(OC2CNC2)CC1)c1cc(Cl)c(OCC2CCCC2)cc1F [Example 46, N-((4-(azetidin-3-yloxy)piperidin-1-yl)sulfonyl)-5-chloro-4-(cyclopentyl-methoxy)-2-fluorobenzamide]",250 nM
5,"O=C(NS(=O)(=O)N1CC[C@H](OC2CCNCC2)C1)c1cc(Cl)c(OCC2CCCC2)cc1F (single isomer, unassigned) [Example 212]",87 nM
6,"N#Cc1ccc(S(=O)(=O)NC(=O)c2cc(Cl)c(OCC3CCCC3)cc2F)cc1C(F)(F)F [Example 280, 5-chloro-N-((4-cyano-3-(trifluoromethyl)phenyl)sulfonyl)-4-(cyclopentylmethoxy)-2-fluorobenzamide]",710 nM
7,"O=C(NS(=O)(=O)c1ccc(OCC2CCNC2)cc1)c1cc(Cl)c(OCC2CCCC2)cc1F (stereo in doubt) [Example 302, (R)-5-chloro-4-(cyclopentylmethoxy)-2-fluoro-N-((4-(pyrrolidin-3-ylmethoxy)phenyl)sulfonyl)benzamide]",120 nM
8,"O=C(NS(=O)(=O)c1ccc(OCc2cccc(F)c2)cc1)c1cc(Cl)c(OCC2CCCC2)cc1F [Example 298, 5-chloro-4-(cyclopentylmethoxy)-2-fluoro-N-((4-((3-fluorobenzyl)oxy)-phenyl)sulfonyl)benzamide]",220 nM
9,"O=C(NS(=O)(=O)c1ccc2ccccc2c1)c1cc(Cl)c(OCC2CCCC2)cc1F [Example 290, 5-chloro-4-(cyclopentylmethoxy)-2-fluoro-N-(naphthalen-2-ylsulfonyl)benzamide]",760 nM
10,"NCCCOc1ccc(S(=O)(=O)NC(=O)c2cc(Cl)c(OCC3CCCC3)cc2F)cc1 [Example 314, N-((4-(3-aminopropoxy)phenyl)sulfonyl)-5-chloro-4-(cyclopentylmethoxy)-2-fluorobenzamide]",310 nM
11,"CN(C)C1CCCN(c2ccc(S(=O)(=O)NC(=O)c3cc(Cl)c(OCC4CCCC4)cc3F)cc2)C1 (single isomer, unassigned) [Example 209]",110 nM
12,"O=C(NS(=O)(=O)c1ccccc1)c1cc(Cl)c(OCC2CCCC2)cc1F [Example 78, 5-chloro-4-(cyclopentylmethoxy)-2-fluoro-N-(phenylsulfonyl)benzamide]",100 nM
13,"CN(C)[C@H]1CCCC[C@@H]1Nc1cc(F)c(S(=O)(=O)Nc2ccc(OCCCc3ccc(C(F)(F)F)cc3)cn2)cc1Cl [Example 103, 5-chloro-4-(((1S,2S)-2-(dimethylamino)cyclohexyl)amino)-2-fluoro-N-(5-(3-(4-(trifluoromethyl)phenyl)propoxy)pyridin-2-yl) benzenesulfonamide]",220 nM
14,"Cn1ccnc1COc1ccc(S(=O)(=O)NC(=O)c2cc(Cl)c(OCC3CCCC3)cc2F)cc1 [Example 312, 5-chloro-4-(cyclopentylmethoxy)-2-fluoro-N-((4-((1-methyl-1H-imidazol-2-yl)methoxy)phenyl)sulfonyl)benzamide]",83 nM
15,"CNC[C@@H]1CN(S(=O)(=O)NC(=O)c2cc(Cl)c(OCC3CCCC3)cc2F)CCO1 (single isomer, unassigned) [Example 26]",190 nM
16,"CN(C)[C@H]1CCCC[C@@H]1Oc1ccc(S(=O)(=O)Nc2nc3ccc(OCC4CCCC4)cc3s2)c(F)c1 [Example 97, N-(6-(cyclopentylmethoxy)benzo[d]thiazol-2-yl)-4-(((1S,2S)-2-(dimethyl-amino)cyclohexyl)oxy)-2-fluorobenzenesulfonamide]",20 nM
17,"O=C(NS(=O)(=O)Cc1ccc2ncccc2c1)c1cc(Cl)c(OCC2CCCC2)cc1F [Example 273, 5-chloro-4-(cyclopentylmethoxy)-2-fluoro-N-((quinolin-6-ylmethyl)sulfonyl)benzamide]",230 nM
18,"CC(C)N1CC(OC2CCN(S(=O)(=O)NC(=O)c3cc(Cl)c(OCC4CCCC4)cc3F)CC2)C1 [Example 10, 5-chloro-4-(cyclopentylmethoxy)-2-fluoro-N-((4-((1-isopropylazetidin-3-yl)oxy)piperidin-1-yl)sulfonyl)benzamide]",31 nM
19,"Cc1cccc(COc2ccc(S(=O)(=O)NC(=O)c3cc(Cl)c(OCC4CCCC4)cc3F)cc2)c1 [Example 260, 5-chloro-4-(cyclopentylmethoxy)-2-fluoro-N-((4-((3-methylbenzyl)oxy)phenyl)sulfonyl)benzamide]",200 nM
20,"CCc1ccc(S(=O)(=O)NC(=O)c2cc(Cl)c(OCC3CCCC3)cc2F)cc1 [Example 243, 5-chloro-4-(cyclopentylmethoxy)-N-((4-ethylphenyl)sulfonyl)-2-fluorobenzamide]",670 nM
21,"Cc1cc(C(=O)NS(=O)(=O)N2CCC(OC3CN(C)C3)CC2)c(F)cc1OCC1CCCC1 [Example 2, 4-(cyclopentylmethoxy)-2-fluoro-5-methyl-N-((4-((1-methylazetidin-3-yl)oxy)piperidin-1-yl)sulfonyl)benzamide]",64 nM
22,"O=S(=O)(Nc1noc2cc(OCC3CCCC3)c(C3CC3)cc12)N1CCC(O[C@@H]2CCNC2)CC1 (single isomer, unassigned) [Example 91, 2,2,2-trifluoroacetate]",790 nM
23,"O=C(NS(=O)(=O)c1ccc(OC2CCNC2)cc1)c1cc(Cl)c(OCC2CCCC2)cc1F (stereo not shown) [Example 325, 5-chloro-4-(cyclopentylmethoxy)-2-fluoro-N-((4-(pyrrolidin-3-yloxy)phenyl)sulfonyl)benzamide]",240 nM
24,"COC[C@H](C)S(=O)(=O)NC(=O)c1cc(Cl)c(OCC2CCCC2)cc1F (single isomer, unassigned) [Example 248]",760 nM
